The nature of data set [1]: Lipophilicity, log P of the compound. It is filed as physicochemical. The following applies: octanol/water.
For data set [2], the system named is Plasmodium yoelii nigeriensis. As to the kind of experiment: Antimalarial activity against chloroquine-, mefloquine-, halofantrine-resistant Plasmodium yoelii nigeriensis blood stream schizonts infected in Swiss mouse assessed as suppression of parasitemia at 48 mg/kg, im administered once daily for 4 days relative to control. Format: functional. Conditions: route intramuscular.

The subject of data set [3] is Plasmodium yoelii nigeriensis. As to the kind of experiment: Antimalarial activity against chloroquine-, mefloquine-, halofantrine-resistant Plasmodium yoelii nigeriensis blood stream schizonts infected in Swiss mouse assessed as disease cured mouse at 48 mg/kg, im administered once daily for 4 days measured on day 28. It is filed as functional, organism-based. Details: dose 48 mg/kg.

Data set [4] concerns Plasmodium yoelii nigeriensis. Nature of the data set: Antimalarial activity against chloroquine-, mefloquine-, halofantrine-resistant Plasmodium yoelii nigeriensis blood stream schizonts infected in Swiss mouse assessed as suppression of parasitemia at 6 mg/kg, im administered once daily for 4 days relative to control. Format: functional. The following applies: route intramuscular.

Data set [5] has as its system Plasmodium yoelii nigeriensis. As to the kind of experiment: Antimalarial activity against chloroquine-, mefloquine-, halofantrine-resistant Plasmodium yoelii nigeriensis blood stream schizonts infected in Swiss mouse assessed as suppression of parasitemia at 12 mg/kg, im administered once daily for 4 days relative to control. Format: functional. The following applies: route intramuscular.

Data set [6] has as its system Plasmodium yoelii nigeriensis. Nature of the data set: Antimalarial activity against chloroquine-, mefloquine-, halofantrine-resistant Plasmodium yoelii nigeriensis blood stream schizonts infected in Swiss mouse assessed as suppression of parasitemia at 24 mg/kg, im administered once daily for 4 days relative to control. It is filed as functional. The following applies: route intramuscular.

Data set [7] has as its system Plasmodium yoelii nigeriensis. Nature of the data set: Antimalarial activity against chloroquine-, mefloquine-, halofantrine-resistant Plasmodium yoelii nigeriensis blood stream schizonts infected in Swiss mouse assessed as disease cured mouse at 12 mg/kg, im administered once daily for 4 days measured on day 28. Details: dose 12 mg/kg. Format: functional, organism-based.

Data set [8] relates to Plasmodium yoelii nigeriensis. Nature of the data set: Antimalarial activity against chloroquine-, mefloquine-, halofantrine-resistant Plasmodium yoelii nigeriensis blood stream schizonts infected in Swiss mouse assessed as disease cured mouse at 6 mg/kg, im administered once daily for 4 days measured on day 28. Details: dose 6 mg/kg. It is filed as functional, organism-based.

Data set [9] concerns Plasmodium yoelii nigeriensis. As to the kind of experiment: Antimalarial activity against chloroquine-, mefloquine-, halofantrine-resistant Plasmodium yoelii nigeriensis blood stream schizonts infected in Swiss mouse assessed as disease cured mouse at 24 mg/kg, im administered once daily for 4 days measured on day 28. Format: functional, organism-based. Details: dose 24 mg/kg.

Data set [10] relates to Plasmodium yoelii nigeriensis. As to the kind of experiment: Antimalarial activity against chloroquine-, mefloquine-, halofantrine-resistant Plasmodium yoelii nigeriensis blood stream schizonts infected in Swiss mouse assessed as disease cured mouse at 3 mg/kg, im administered once daily for 4 days measured on day 28. Format: functional, organism-based. Details: dose 3 mg/kg.

The test system of data set [11] is Plasmodium yoelii nigeriensis. As to the kind of experiment: Antimalarial activity against chloroquine-, mefloquine-, halofantrine-resistant Plasmodium yoelii nigeriensis blood stream schizonts infected in Swiss mouse assessed as suppression of parasitemia at 3 mg/kg, im administered once daily for 4 days relative to control. Format: functional. The following applies: route intramuscular.

Data set [12] deals with Plasmodium yoelii nigeriensis. Nature of the data set: Antimalarial activity against chloroquine-, mefloquine-, halofantrine-resistant Plasmodium yoelii nigeriensis infected in Swiss mouse assessed as protection from infection at 3 to 48 mg/kg, im administered once daily for 4 days measured on day 28 relative to artesunic acid. Conditions: dose mg/kg 3-48; route intramuscular. It is filed as functional.

Calls of active or inactive are those of the source. The rule behind the calls is not given here.

By logP is commonly meant a log measure of how a compound divides between an organic and an aqueous phase. On to `C[C@H]1[C@@H](OCCOCCOCCOCCOC(=O)CCC(=O)O)O[C@@H]2O[C@@]3(C)CC[C@H]4[C@H](C)CC[C@@H]1[C@@]24OO3`, for which the logP in data set [1] amounted to 2.42. For the same molecule, the Activity in data set [2] amounted to 97%. Besides, the result in data set [3] was inactive.
On the same counts, the results for `C[C@H]1[C@@H](OCCCOC(=O)CCC(=O)O)O[C@@H]2O[C@@]3(C)CC[C@H]4[C@H](C)CC[C@@H]1[C@@]24OO3` are 2.99, 100% and “inactive”.
`C[C@H]1[C@@H](OCCCCCCCCCCO)O[C@@H]2O[C@@]3(C)CC[C@H]4[C@H](C)CC[C@@H]1[C@@]24OO3` yielded a logP in [1] of 6.05. Also, the Activity in data set [4], in [2], in [5] and in data set [6] was 100% each time. In addition, the result in [7] and in data set [8] was inactive. Besides, the result in [3] was Active.
Molecule `C[C@H]1[C@@H](OCCCCCO)O[C@@H]2O[C@@]3(C)CC[C@H]4[C@H](C)CC[C@@H]1[C@@]24OO3` returned a logP in [1] of 3.97. In addition, the Activity in data set [4], in data set [2], in data set [5] and in data set [6] was 100% each time. The result in data set [9], in data set [7] and in [3] was Active.
`C[C@H]1[C@@H](OCCCCCCCCO)O[C@@H]2O[C@@]3(C)CC[C@H]4[C@H](C)CC[C@@H]1[C@@]24OO3`: the logP in [1] stood at 5.22. For the same molecule, the Activity in data set [4], in [2], in data set [5] and in [6] was 100% each time. The outcome in [9], in data set [7] and in data set [3] was Active.
For `C[C@H]1[C@@H](OCCCCCCO)O[C@@H]2O[C@@]3(C)CC[C@H]4[C@H](C)CC[C@@H]1[C@@]24OO3`, the log partition coefficient (logP) in data set [1] turned out to be 4.38. The result in data set [10] was inactive. Also, the Activity in [4], in data set [2], in [5], in [11] and in data set [6] was 100% each time. For the same molecule, the outcome in [9], in data set [7] and in data set [3] was Active.
In data set [1], `C[C@H]1[C@@H](OCCCCO)O[C@@H]2OC3(C)CC[C@H]4[C@H](C)CC[C@@H]1[C@@]24OO3` returned a logP of 3.55. The Activity in data set [4] was 100%; in [2], 100%; in data set [5], 100%; in data set [11], 98.3%; in data set [6], 100%. Besides, the outcome in [9], in data set [7] and in [3] was Active.
`C[C@H]1[C@@H](OCCCO)O[C@@H]2O[C@@]3(C)CC[C@H]4[C@H](C)CC[C@@H]1[C@@]24OO3` registered a logP in data set [1] of 3.1. For the same molecule, the result in data set [10] was inactive. In addition, the Activity is 100% in data set [4]; 100% in [2]; 100% in data set [5]; 98.3% in data set [11]; 100% in data set [6]. Further, the result in data set [9] and in data set [3] was Active.
`C[C@H]1[C@@H](OCCCCCOC(=O)CCC(=O)O)O[C@@H]2O[C@@]3(C)CC[C@H]4[C@H](C)CC[C@@H]1[C@@]24OO3` gave a logP in data set [1] of 3.86. For the same molecule, the Activity in [2] was 94.91%; in [6], 92.73%. In addition, the outcome in [9] and in data set [3] was inactive.
As for `C[C@H]1[C@@H](OCCOCCOCCOCCO)O[C@@H]2O[C@@]3(C)CC[C@H]4[C@H](C)CC[C@@H]1[C@@]24OO3`, the logP in data set [1] came out at 2.52. Further, the Activity in data set [2], in data set [5] and in data set [6] was 100% each time. Besides, the outcome in data set [9] and in data set [7] was inactive.
`C[C@H]1[C@@H](OCCCCCCCCCCCCO)O[C@@H]2O[C@@]3(C)CC[C@H]4[C@H](C)CC[C@@H]1[C@@]24OO3`: the logP in data set [1] worked out at 6.89. Besides, the Activity in data set [2] and in data set [6] was 100% throughout. For the same molecule, the outcome in data set [9] was inactive.
In turn, `C[C@H]1[C@@H](OCCCCOC(=O)CCC(=O)O)O[C@@H]2O[C@@]3(C)CC[C@H]4[C@H](C)CC[C@@H]1[C@@]24OO3` returned a logP in data set [1] of 3.45. Besides, the Activity in data set [2] turned out to be 100%.
Molecule `C[C@H]1[C@@H](OCCOCCOC(=O)CCC(=O)O)O[C@@H]2O[C@@]3(C)CC[C@H]4[C@H](C)CC[C@@H]1[C@@]24OO3` displayed a logP in data set [1] of 2.73. The Activity in [2] amounted to 100%.
Molecule `C[C@H]1[C@@H](OCCCCCCCCOC(=O)CCC(=O)O)O[C@@H]2O[C@@]3(C)CC[C@H]4[C@H](C)CC[C@@H]1[C@@]24OO3` gave a logP in data set [1] of 5.12. The Activity in data set [2], in data set [5] and in data set [6] was 100% throughout. In addition, the outcome in data set [9] and in data set [3] was Active. For the same molecule, the outcome in data set [7] was inactive. In addition, the “fold change (FC)” value in data set [12] was determined as 2.
Take `C[C@H]1[C@@H](OCCOC(=O)CCC(=O)O)O[C@@H]2O[C@@]3(C)CC[C@H]4[C@H](C)CC[C@@H]1[C@@]24OO3`: in data set [1], the logP is 2.89. Besides, the Activity in [2] came out at 100%. The outcome in [3] was inactive.
On the same counts, the results for `C[C@H]1[C@@H](OCCCCCCOC(=O)CCC(=O)O)O[C@@H]2O[C@@]3(C)CC[C@H]4[C@H](C)CC[C@@H]1[C@@]24OO3` are 4.28, 98.55% and “inactive”.
Molecule `C[C@H]1[C@@H](OCCCCCCCCCOC(=O)CCC(=O)O)O[C@@H]2O[C@@]3(C)CC[C@H]4[C@H](C)CC[C@@H]1[C@@]24OO3` (mixture of isomers) had a logP in data set [1] of 5.53. Besides, the Activity in data set [2] turned out to be 100%; in data set [5], 67.27%; in data set [6], 93.09%. Also, the outcome in [9] and in data set [7] was inactive. Further, in [3], the outcome was Active.
Take `C[C@H]1[C@@H](OCCOCCO)O[C@@H]2O[C@@]3(C)CC[C@H]4[C@H](C)CC[C@@H]1[C@@]24OO3`: in data set [1], the logP stood at 2.83. For the same molecule, the Activity in [4], in [2], in data set [5] and in [6] was 100% in each case. In addition, the outcome in data set [9] and in [3] was Active. Also, the outcome in data set [8] was inactive.
`CCO[C@H]1O[C@@H]2O[C@@]3(C)CC[C@H]4[C@H](C)CC[C@@H]([C@H]1C)[C@@]24OO3` [ARTEMOTIL]: the result in [10] was inactive. For the same molecule, the Activity in data set [4] and in data set [11] was 100% in each case. The result in data set [8] was Active.
On to `C[C@H]1[C@@H](OCCOCCOCCOC(=O)CCC(=O)O)O[C@@H]2O[C@@]3(C)CC[C@H]4[C@H](C)CC[C@@H]1[C@@]24OO3`, for which the logP in data set [1] was found to be 2.54. Moreover, in [2], the Activity is reported as 92%.
In turn, `C[C@H]1[C@@H](OCCOCCOCCO)O[C@@H]2O[C@@]3(C)CC[C@H]4[C@H](C)CC[C@@H]1[C@@]24OO3` showed a logP in data set [1] of 2.68. Moreover, the Activity in data set [2], in data set [5] and in data set [6] was 100% throughout. In addition, the result in data set [9] and in [7] was inactive.
As to `C[C@H]1[C@@H](OCCO)O[C@@H]2O[C@@]3(C)CC[C@H]4[C@H](C)CC[C@@H]1[C@@]24OO3`, in [1], the logP is 2.99. The Activity in data set [4], in data set [2], in data set [5] and in data set [6] was 100% throughout. Besides, the outcome in [9] and in [3] was Active.

The record behind these values is ChEMBL document CHEMBL2029316, “Linker-based hemisuccinate derivatives of artemisinin: synthesis and antimalarial assessment against multidrug-resistant Plasmodium yoelii nigeriensis in mice” (J Med Chem, 2012).
